Values of other authors, collected in patent US10695439B2, “Pyrrolobenzodiazepine conjugates” (Medimmune Limited, priority 2016, dated 2020).

Experiments:
[1] = relative to SG2057, Hartley et al 2012
human tumour cell lines = conditions: quoted from 2014 REF impact study
[2] = system: human tumour xenograft models; conditions: quoted from 2014 REF impact study

Compound	cytotoxicity, times less cytotoxic than SG2057 [1]	activity against a range of human tumour cell lines (human tumour cell lines)	activity in human tumour xenograft models [2]
C=C1C[C@H]2C=Nc3cc(OCCCOc4cc5c(cc4OC)C(=O)N4CC(=C)C[C@H]4C=N5)c(OC)cc3C(=O)N2C1 [SG2000]	at least 10 times		
COc1ccc(C2=CN3C(=O)c4cc(OC)c(OCCCOc5cc6c(cc5OC)C(=O)N5C=C(c7ccc(OC)cc7)C[C@H]5C=N6)cc4N=C[C@@H]3C2)cc1 [SG2202]		picomolar/sub-picomolar activity	curative activity
